According to patent US9550811B2, “Peptide scaffold design” (BIONOR IMMUNO AS, priority 2010, dated 2017):
Where no end group is shown, it is not given here. [ ]: non-standard residue; d: D form. Nle = CCCC[C@H](N)C(=O)O

Legend:
Assay in all cases: REVEAL binding assay
Conditions in all cases: score as percentage of the signal generated by the positive control peptide
HLA-B40 = tested on: HLA-B40
Outline: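 Each candidate ninemer is assessed for binding and stabilizing the allele's MHC–peptide complex, detected as native conformation. Results are given relative to a positive control epitope, and an intermediate binder serves as a performance check.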

HLA-B15 = tested on: HLA-B15
Text: (§2) HLA-A1, HLA-A2, HLA-A3, HLA-A11, HLA-A24, HLA-A29, HLA-B7, HLA-B8, HLA-B14, HLA-B15, HLA-B27, HLA-B35, HLA-B40.
(§3) The REVEAL™ binding assay determined the ability of each candidate peptide to bind to one or more MHC class I alleles and stabilizing the MHC-peptide complex. […] Detection is based on the presence or absence of the native conformation of the MHC-peptide complex. Each peptide is given a score relative to the positive control peptide, which is a known T cell epitope.

HLA-B14 = tested on: HLA-B14
HLA-B8 = tested on: HLA-B8
Text: as §2, §3

HLA-A1 = tested on: HLA-A1
HLA-A11 = HLA-A11 (Homo sapiens, UniProt P04439, A114D/F33Y/S129P)
Outline: (§1)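 Synthetic nonamer peptides were tested for their ability to bind and stabilize MHC class I–peptide complexes, detected by the native conformation of the complex. Each peptide is scored relative to a positive-control known T-cell epitope.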

HLA-B27 = HLA-B27 (Homo sapiens, UniProt P01889, D138H/D201E/E176V/E204Q/G107R/H137Y/K202T/N104T/N87E/Q56L/Q94K/R106L/R155S/R180L/S101D/S121N/S48T/Y140D/Y33H/Y91C)
Outline: as §1

HLA-A2 = HLA-A2 (Homo sapiens, UniProt P04439, D140Y/D185E/D98H/E176V/E277Q/G131W/G231S/I119V/I121R/I166T/I218V/N151K/N90K/P208A/P217A/Q86G/Q94H/R138H/R169H)
Outline: as §1

HLA-B7 = HLA-B7 (Homo sapiens, UniProt P01889)
Chain of HLA-B7 (P61769 21-119): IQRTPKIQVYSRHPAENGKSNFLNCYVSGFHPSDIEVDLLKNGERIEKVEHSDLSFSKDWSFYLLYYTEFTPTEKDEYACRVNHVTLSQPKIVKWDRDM
Chain of HLA-B7 (P01889 25-299): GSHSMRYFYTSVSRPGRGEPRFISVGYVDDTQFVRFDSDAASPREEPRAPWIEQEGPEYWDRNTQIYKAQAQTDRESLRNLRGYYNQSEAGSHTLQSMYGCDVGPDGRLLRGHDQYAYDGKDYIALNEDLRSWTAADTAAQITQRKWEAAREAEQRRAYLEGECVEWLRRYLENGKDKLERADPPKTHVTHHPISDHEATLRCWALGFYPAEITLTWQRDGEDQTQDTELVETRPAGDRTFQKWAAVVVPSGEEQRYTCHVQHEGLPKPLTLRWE
Outline: as §1

HLA-A3 = HLA-A3 (Homo sapiens, UniProt P04439)
Chain of HLA-A3 (P04439 25-299): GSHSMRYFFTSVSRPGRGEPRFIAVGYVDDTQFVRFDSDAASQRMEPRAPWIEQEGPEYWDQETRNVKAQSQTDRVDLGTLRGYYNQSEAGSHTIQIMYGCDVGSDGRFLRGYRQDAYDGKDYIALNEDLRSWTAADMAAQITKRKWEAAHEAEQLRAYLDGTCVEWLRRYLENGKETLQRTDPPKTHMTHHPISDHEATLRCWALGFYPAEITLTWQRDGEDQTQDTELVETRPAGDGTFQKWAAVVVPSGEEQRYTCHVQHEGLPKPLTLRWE
Chain of HLA-A3 (P61769 21-119, further chain): as the sequence (P61769 21-119) above
Outline: as §1

HLA-A24 = tested on: HLA-A24
HLA-B35 = tested on: HLA-B35
Text: as §2, §3

HLA-A29 = tested on: HLA-A29
Text: as §2, §3

Substance | REVEAL binding score, HLA-type B40 (HLA-B40) [%] | REVEAL binding score, HLA-type B15 (HLA-B15) [%] | REVEAL binding score, HLA-type B14 (HLA-B14) [%] | REVEAL binding score, HLA-type B8 (HLA-B8) [%] | REVEAL binding score, HLA-type A1 (HLA-A1) [%] | REVEAL binding score, HLA-type A11 (HLA-A11) [%] | REVEAL binding score, HLA-type B27 (HLA-B27) [%] | REVEAL binding score, HLA-type A2 (HLA-A2) [%] | REVEAL binding score, HLA-type B7 (HLA-B7) [%] | REVEAL binding score, HLA-type A3 (HLA-A3) [%] | REVEAL binding score, HLA-type A24 (HLA-A24) [%] | REVEAL binding score, HLA-type B35 (HLA-B35) [%] | REVEAL binding score, HLA-type A29 (HLA-A29) [%]
ITFSIYLIV | 78.84 | 6.68 | 1.53 | 11.38 | 9.89 | 5.31 | 4.79 | 43.08 | 4.32 | 1.66 | 0.77 | 12.30 | 24.10
IVGGVYLLP | 19.83 | 15.00 | 1.65 | 11.48 | 22.11 | 3.10 | 0.68 | 6.78 | 24.16 | 1.88 | 0.30 | 2.68 | 12.38
KVIDTLTCG | 32.89 | 10.13 | 0.18 | 13.17 | 15.77 | 8.91 | 0.63 | 19.13 | 0.57 | 4.27 | 0.57 | 2.74 | 13.16
LGKVIDTLT | 44.92 | 7.14 | 0.43 | 17.96 | 22.08 | 12.95 | 2.90 | 4.05 | 0.94 | 7.39 | 0.70 | 5.11 | 15.99
LGRVIETLT | 62.07 | 16.38 | 0.28 | 14.74 | 16.33 | 20.27 | 2.54 | 5.90 | 2.66 | 7.40 | 0.97 | 3.43 | 12.31
LMGYIPLVG | 33.55 | 9.43 | 0.08 | 20.75 | 14.17 | 2.13 | 1.44 | 31.94 | 0.41 | 2.53 | 0.51 | 0.81 | 24.26
LPAVGAPIG | 39.31 | 10.10 | 0.12 | 15.87 | 20.57 | 4.95 | 0.49 | 5.60 | 8.12 | 3.02 | 0.61 | 1.06 | 25.32
L[Nle]GYIPLIG | 57.46 | 14.60 | 0.15 | 17.29 | 14.33 | 2.48 | 0.73 | 49.48 | 0.89 | 3.98 | 0.71 | 2.85 | 25.94
MGYIPLVGA | 40.78 | 8.85 | 0.73 | 14.88 | 11.34 | 4.79 | 0.83 | 10.71 | 0.80 | 3.40 | 0.35 | 0.85 | 19.54
NIPGSTYSL | 37.01 | 4.46 | 0.46 | 7.66 | 8.41 | 3.20 | 2.29 | 5.71 | 4.80 | 3.98 | 8.50 | 4.71 | 31.99
NLGKVIDTL | 53.82 | 12.59 | 0.57 | 16.86 | 18.14 | 12.81 | 2.64 | 7.70 | 2.64 | 6.41 | 1.16 | 4.39 | 10.67
NLGRVIETL | 38.91 | 16.29 | 0.07 | 15.58 | 18.24 | 4.53 | 1.66 | 11.97 | 1.47 | 2.86 | 0.86 | 2.82 | 16.44
